Results published in PMC5958743, “A Novel Catecholopyrimidine Based Small Molecule PDE4B Inhibitor Suppresses Inflammatory Cytokines in Atopic Mice” (Frontiers in Pharmacology, 2018).

Assays:
[1] = biological target: T1, PDE4B1 (Homo sapiens, UniProt Q07343); assay: PDE enzyme inhibitor assay (LANCE Ultra cAMP), PDE4B; assay type: biochemical; settings: for IC50: 0.1 ng/well enzyme, 3 nM cAMP, 37°C 1 h; for specificity against PDE4B compared to other PDE enzymes: versus PDE1A, PDE3B, PDE4A, PDE4C, PDE4D, PDE7
T1 construct: purchased BPS Biosciences

[2] = system: Raw 264.7 cells; assay: Intracellular cAMP in LPS-stimulated macrophage cell line (ELISA); assay type: cell-based; settings: 30 nM compound 1 or 15 nM compound 2 for 1 h, then 1 μM LPS 30 min
Experimental: (§1) The macrophage cell line, Raw 264.7 was maintained for 24 h in serum free DMEM medium. Then, cells were incubated with 30 nM of compound 1 and 15 nM of compound 2 for 1 h. After incubation, 1 μM of LPS (Sigma-Aldrich, United States) was added and incubated for 30 min at 37°C in a humidified 5% CO2 atmosphere. Finally, cells were lysed and supernatants were harvested. Intracellular cAMP levels were measured using the cAMP ELISA kit according to the manufacturer’s instruction (ADI-900-066; Enzo Life Sciences, United States). Similarly, TNFα level was assayed by ELISA analysis according to the manufacturer’s protocol (LEGEND MAX^TM Human TNF-α ELISA Kit, San Diego, CA, United States). Concentration is expressed in pg/mL.

[3] = system: DNCB-induced NC/Nga mice; assay: DNCB-induced atopic dermatitis model, serum IgE and cytokines by ELISA; assay type: in vivo, mouse; settings: for serum IL-4 level / serum IL-5 level: topical 1% compound 1 (p < 0.05) or 0.3% compound 2 (p < 0.01); for serum IL-4 level / serum IL-5 level / serum IL-17 level: vs DNCB alone; for serum IL-17 level: topical 1% compound 1 (p < 0.5) or 0.3% compound 2 (p < 0.01); for serum IFN-γ level (reduced by DNCB): topical 1% compound 1 or 0.3% compound 2; for serum IgE level: topical 1% compound 1 or 0.3% compound 2, p < 0.01 vs DNCB
Experimental: (§2) Male NC/Nga mice, 7-weeks-old, were purchased from Central Lab Animal Inc., South Korea. All mice were housed in specific pathogen-free conditions at the animal facility center of the College of Pharmacy at Seoul National University (Seoul, Korea), and were maintained at 24 – 26°C with a 12 h light and dark cycle. Animal experiments were conducted in accordance with protocols approved by the Institutional Animal Care and Use Committee of Seoul National University.
(§3) NC/Nga mice were classified into six groups (n = 6): (1) vehicle alone, acetone-olive oil (Sigma-Aldrich, St. Louis, MO, United States) in a ratio of 3:1 was used as a vehicle; (2) 1% of compound-1 with vehicle alone; (3) 0.3% of compound-2 with vehicle alone; (4) DNCB+vehicle; (5) DNCB + 1% of compound-1 mixed with vehicle; and (6) DNCB + 0.3% of compound-2 mixed with vehicle. DNCB (Sigma-Aldrich, St. Louis, MO, United States) was used to induce AD on the dorsal skin of the mice. Compound 1 and 2 were dissolved in 150 μl of vehicle and topically applied on the atopic tissue. Hair on the backs of the mice were removed using an electric clipper. Two days later, 150 μl of 1% DNCB was dissolved in the vehicle and applied on the dorsal skin twice with an interval period of 4 days. Afterward, 150 μl of 0.2% DNCB dissolved in the vehicle was applied to challenge the dorsal skin twice-a-week for 5 weeks. AD-induced mice were co-treated with either compound-1 or compound-2 once daily from day six onward until the end of the experiments.
On the final day of the experimental scheme, blood samples were collected from the experimental animals. Serum was isolated and stored at -80°C along with protease inhibitor cocktail for later use (Thermo Fisher Scientific, United States). Serum IL-4, IL-5, IL-17, IFN-γ, and IgE levels were measured according to the manufacturer’s instructions (Biolegend, San Diego, CA, United States; IL-4-431101; IL-17-432501; IL-5-431204; IFN-γ- 430801; IgE-432401; TNF-α- 430901). Serum samples were diluted five-fold for the cytokine assay. 10,000-fold diluted serum samples were utilized for the IgE assay. Absorbance was measured immediately at 492 nm using a multiplate reader (Molecular Devices Spectramax M5, Sunnyvale, CA, United States).

[4] = biological target: T2, PDE4A4 (Homo sapiens, UniProt P27815); assay: PDE enzyme inhibitor assay (LANCE Ultra cAMP), PDE4A; assay type: biochemical; settings: 0.1 ng/well enzyme, 3 nM cAMP, 37°C 1 h
T2 construct: purchased BPS Biosciences
Experimental: (§4) The enzyme inhibition assay was performed against human PDE enzymes (PDE1A, PDE3A, PDE4A, PDE4B, PDE4C, PDE4D, and PDE7A; BPS Biosciences, San Diego, CA, United States) according to the manufacturer’s instructions (LANCE Ultra cAMP assay kit; Perkin Elmer, United States). In each well, 5 μl of 3 nM cAMP, 2.5 μl of PDE enzyme (0.1 ng/well), and 2.5 μl of inhibitor solution were added, and incubated at 37°C for 1 h. After incubation, 5 μL each of Eu-cAMP and ULight-anti-cAMP detection reagent supplemented with 1 mM of IBMX were added. The reaction mixture was incubated at 37°C for 1 h. After incubation, emission signals were collected at 665 nm using EnVision Multilable Reader (Perkin Elmer, United States).

[5] = biological target: T3, PDE4C1 (Homo sapiens, UniProt Q08493); assay: PDE enzyme inhibitor assay (LANCE Ultra cAMP), PDE4C; assay type: biochemical; settings: 0.1 ng/well enzyme, 3 nM cAMP, 37°C 1 h
T3 construct: purchased BPS Biosciences
Experimental: as §4

[6] = system: Raw 264.7 cells; assay: LPS-induced TNF-α in macrophage cell line (ELISA); assay type: cell-based; settings: 30 nM compound 1 or 15 nM compound 2, 1 μM LPS 30 min
Experimental: as §1

[7] = system: DNCB-induced NC/Nga mice; assay: DNCB-induced atopic dermatitis model, histopathology and immunohistochemistry of dorsal skin; assay type: in vivo, mouse; settings: for mast cell infiltration in the epidermis region (toluidine blue), number of mast cells: topical 1% compound 1 or 0.3% compound 2, DNCB alone 97 ± 10.58, control 13 ± 2; for CD4+ cells in the skin (immunohistochemistry) / epidermal thickening (H&E) / infiltration of inflammatory cells into epidermis and dermis (H&E): topical 1% compound 1 or 0.3% compound 2, vs DNCB alone
Experimental: as §2, §3
Skin samples collected from the experimental mice were fixed by using 10% neutral buffered formalin, and embedded in paraffin. 4-μm thin tissue sections were prepared and stained with hematoxylin and eosin (H&E; Sigma-Aldrich, United States). To investigate the mast cell infiltration, sections were stained with toluidine blue (Sigma-Aldrich, United States). For immunohistochemical analysis, tissue sections were microwaved in sodium citrate buffer for 10 min to retrieve the antigen/epitope. After incubating with 0.1% triton X-100 containing phosphate buffered saline (PBS), sections were blocked with 10% FBS. Then, sections were incubated overnight with primary antibodies specific for IL-4, 5, 17, IFN-γ, and CD4, respectively (Santa Cruz Biotechnology, Santa Cruz, CA, United States). After treatment with 0.3% H2O2 in 0.1 M PBS for 15 min, sections were incubated with HRP-conjugated secondary antibodies specific for IL-4, 5, 17, IFN-γ, and CD4 for 1 h at room temperature. Diaminobenzidine was used to detect peroxidase activity, which was photographed using an Olympus AX70 light microscope (Tokyo, Japan).

[8] = biological target: PDE3B (Homo sapiens, UniProt Q13370); assay: PDE enzyme inhibitor assay (LANCE Ultra cAMP), PDE3B; assay type: biochemical; settings: 0.1 ng/well enzyme, 3 nM cAMP, 37°C 1 h
[9] = system: DNCB-induced NC/Nga mice; assay: DNCB-induced atopic dermatitis model, evaluation of skin lesion and organs; assay type: in vivo, mouse; settings: for dorsal skin thickness / spleen weight / subiliac lymph node size / subiliac lymph node weight / week after which significant reduction in dermatitis score was observed / scratching frequency (DNCB-induced itching sensation) / dermatitis score / AD-like skin features (erythema, hemorrhage, dry skin): DNCB-induced mice; for dorsal skin thickness: end of experiment, DNCB alone 1.19 mm, control 0.45 mm; for dorsal skin thickness / spleen weight / subiliac lymph node size / subiliac lymph node weight: topical 1% compound 1 or 0.3% compound 2; for spleen weight / subiliac lymph node size / subiliac lymph node weight / AD-like skin features (erythema, hemorrhage, dry skin): vs DNCB alone; for week after which significant reduction in dermatitis score was observed / scratching frequency (DNCB-induced itching sensation) / dermatitis score / AD-like skin features (erythema, hemorrhage, dry skin): topical once daily, 1% compound 1 or 0.3% compound 2; for scratching frequency (DNCB-induced itching sensation): measured once-a-week for 5 weeks; for dermatitis score: p < 0.01 vs DNCB; for skin feature of compound alone treated mice: no DNCB, topical 1% compound 1 or 0.3% compound 2 with vehicle alone
Experimental: as §2, §3
Dermatitis score was measured according to a previously established method, once-a-week for 5 weeks ([Matsuda et al., 1997]). Skin features of dermatitis, such as erythema/hemorrhage, edema, excoriation/erosion, and scaling/dryness were considered in the evaluation. Each symptom was scored as follows: 0 (none); 1 (mild); 2 (moderate); and 3 (severe). The sum of all the scores was defined as the dermatitis score of individual mice, which ranged between 0 and 12. In addition, the scratching behavior of the experimental animals was measured once-a-week for 5 weeks. Specifically, we measured the frequency with which the mice rubbed their dorsal skin, hind paws, nose, and ears for 10 min.

[10] = biological target: T4, PDE1A (Homo sapiens, UniProt P54750); assay: PDE enzyme inhibitor assay (LANCE Ultra cAMP), PDE1A; assay type: biochemical; settings: 0.1 ng/well enzyme, 3 nM cAMP, 37°C 1 h
T4 construct: purchased BPS Biosciences
Experimental: as §4

[11] = biological target: T5, PDE4D7 (Homo sapiens, UniProt Q08499); assay: PDE enzyme inhibitor assay (LANCE Ultra cAMP), PDE4D; assay type: biochemical; settings: for IC50: 0.1 ng/well enzyme, 3 nM cAMP, 37°C 1 h
T5 construct: purchased BPS Biosciences
Experimental: as §4

[12] = biological target: T6, PDE7 (Homo sapiens, UniProt Q13946); assay: PDE enzyme inhibitor assay (LANCE Ultra cAMP), PDE7; assay type: biochemical; settings: 0.1 ng/well enzyme, 3 nM cAMP, 37°C 1 h
T6 construct: purchased BPS Biosciences
Experimental: as §4

T5 sequence (Q08499 1-748 isoform Q08499-11): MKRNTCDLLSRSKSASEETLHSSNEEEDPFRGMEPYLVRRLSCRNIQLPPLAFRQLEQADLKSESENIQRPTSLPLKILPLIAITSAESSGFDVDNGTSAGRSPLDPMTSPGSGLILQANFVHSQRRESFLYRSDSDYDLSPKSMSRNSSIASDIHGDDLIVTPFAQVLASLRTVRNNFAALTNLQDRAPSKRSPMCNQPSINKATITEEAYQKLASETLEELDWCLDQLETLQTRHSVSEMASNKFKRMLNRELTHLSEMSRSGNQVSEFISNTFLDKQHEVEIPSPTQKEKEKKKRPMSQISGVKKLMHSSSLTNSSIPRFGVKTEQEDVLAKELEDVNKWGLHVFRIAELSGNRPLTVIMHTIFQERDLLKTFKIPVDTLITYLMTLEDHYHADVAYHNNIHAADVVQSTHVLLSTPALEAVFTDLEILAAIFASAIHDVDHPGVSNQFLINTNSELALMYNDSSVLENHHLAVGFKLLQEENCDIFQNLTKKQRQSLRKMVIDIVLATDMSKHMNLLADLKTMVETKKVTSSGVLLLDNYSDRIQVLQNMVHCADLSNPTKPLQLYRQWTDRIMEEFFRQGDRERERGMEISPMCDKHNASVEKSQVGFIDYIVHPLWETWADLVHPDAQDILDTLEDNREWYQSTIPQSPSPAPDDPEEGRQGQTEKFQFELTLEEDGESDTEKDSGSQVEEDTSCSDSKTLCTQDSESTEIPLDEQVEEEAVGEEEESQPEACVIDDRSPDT
T1 sequence (Q07343 whole entry): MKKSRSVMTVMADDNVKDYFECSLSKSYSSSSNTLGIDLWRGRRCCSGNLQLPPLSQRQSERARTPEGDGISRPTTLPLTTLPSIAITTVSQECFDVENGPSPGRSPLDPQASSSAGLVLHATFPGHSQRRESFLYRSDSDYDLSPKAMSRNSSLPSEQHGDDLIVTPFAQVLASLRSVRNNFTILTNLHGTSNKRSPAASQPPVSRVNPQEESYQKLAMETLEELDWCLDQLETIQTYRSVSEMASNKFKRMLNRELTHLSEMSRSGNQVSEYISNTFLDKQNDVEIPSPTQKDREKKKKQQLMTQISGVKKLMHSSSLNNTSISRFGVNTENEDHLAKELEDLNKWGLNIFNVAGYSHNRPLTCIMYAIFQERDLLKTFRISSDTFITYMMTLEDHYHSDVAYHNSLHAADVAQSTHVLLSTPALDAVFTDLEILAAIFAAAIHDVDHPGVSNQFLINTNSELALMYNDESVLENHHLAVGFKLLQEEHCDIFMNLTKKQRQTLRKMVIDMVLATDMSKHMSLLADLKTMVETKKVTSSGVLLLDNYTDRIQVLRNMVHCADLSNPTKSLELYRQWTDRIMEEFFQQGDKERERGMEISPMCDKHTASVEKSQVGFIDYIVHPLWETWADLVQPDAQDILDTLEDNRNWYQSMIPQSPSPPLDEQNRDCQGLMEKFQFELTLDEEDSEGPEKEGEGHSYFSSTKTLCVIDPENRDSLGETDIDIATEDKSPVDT
T4 sequence (P54750 whole entry): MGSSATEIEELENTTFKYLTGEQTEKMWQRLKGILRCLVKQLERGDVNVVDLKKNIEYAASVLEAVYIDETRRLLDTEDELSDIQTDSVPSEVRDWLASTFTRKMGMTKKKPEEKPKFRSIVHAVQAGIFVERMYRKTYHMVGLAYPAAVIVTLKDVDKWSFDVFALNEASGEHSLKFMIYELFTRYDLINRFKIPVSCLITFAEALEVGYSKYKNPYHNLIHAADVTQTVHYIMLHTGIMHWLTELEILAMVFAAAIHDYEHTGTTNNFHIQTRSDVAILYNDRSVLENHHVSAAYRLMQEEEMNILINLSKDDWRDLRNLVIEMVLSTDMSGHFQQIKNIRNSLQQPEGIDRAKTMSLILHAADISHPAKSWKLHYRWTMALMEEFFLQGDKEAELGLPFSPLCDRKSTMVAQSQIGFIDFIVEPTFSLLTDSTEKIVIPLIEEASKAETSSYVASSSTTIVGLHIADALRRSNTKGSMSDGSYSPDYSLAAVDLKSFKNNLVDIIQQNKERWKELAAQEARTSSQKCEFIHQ
PDE3B, sequence (Q13370 whole entry): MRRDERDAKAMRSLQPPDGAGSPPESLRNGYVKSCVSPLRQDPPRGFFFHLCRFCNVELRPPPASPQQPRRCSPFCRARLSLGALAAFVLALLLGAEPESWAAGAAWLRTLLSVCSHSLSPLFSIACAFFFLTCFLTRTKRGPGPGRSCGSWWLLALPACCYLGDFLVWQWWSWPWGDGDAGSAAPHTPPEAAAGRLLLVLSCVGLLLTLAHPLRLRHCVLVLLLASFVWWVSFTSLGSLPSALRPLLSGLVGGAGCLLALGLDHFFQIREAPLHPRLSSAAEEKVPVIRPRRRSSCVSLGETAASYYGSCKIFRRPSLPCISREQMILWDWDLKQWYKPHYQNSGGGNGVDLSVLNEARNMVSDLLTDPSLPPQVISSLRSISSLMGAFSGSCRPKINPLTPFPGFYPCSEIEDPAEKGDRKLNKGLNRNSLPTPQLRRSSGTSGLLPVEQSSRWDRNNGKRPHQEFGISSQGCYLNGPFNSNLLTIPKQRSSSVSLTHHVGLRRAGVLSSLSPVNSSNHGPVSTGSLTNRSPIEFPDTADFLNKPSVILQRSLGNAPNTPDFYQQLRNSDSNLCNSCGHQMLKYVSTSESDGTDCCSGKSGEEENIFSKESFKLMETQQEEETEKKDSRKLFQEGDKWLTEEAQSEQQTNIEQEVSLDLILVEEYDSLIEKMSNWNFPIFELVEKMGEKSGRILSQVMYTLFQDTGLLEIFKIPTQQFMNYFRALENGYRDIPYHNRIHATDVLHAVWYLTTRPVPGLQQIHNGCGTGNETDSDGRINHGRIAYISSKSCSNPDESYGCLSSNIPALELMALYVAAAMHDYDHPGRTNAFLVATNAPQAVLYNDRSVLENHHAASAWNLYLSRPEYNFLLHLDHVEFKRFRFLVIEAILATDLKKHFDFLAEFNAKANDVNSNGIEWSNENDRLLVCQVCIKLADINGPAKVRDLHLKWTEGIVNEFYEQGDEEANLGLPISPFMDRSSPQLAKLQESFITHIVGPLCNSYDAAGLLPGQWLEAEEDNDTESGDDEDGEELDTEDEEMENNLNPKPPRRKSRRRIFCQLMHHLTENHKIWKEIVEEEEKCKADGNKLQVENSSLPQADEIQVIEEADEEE
T3 sequence (Q08493 whole entry): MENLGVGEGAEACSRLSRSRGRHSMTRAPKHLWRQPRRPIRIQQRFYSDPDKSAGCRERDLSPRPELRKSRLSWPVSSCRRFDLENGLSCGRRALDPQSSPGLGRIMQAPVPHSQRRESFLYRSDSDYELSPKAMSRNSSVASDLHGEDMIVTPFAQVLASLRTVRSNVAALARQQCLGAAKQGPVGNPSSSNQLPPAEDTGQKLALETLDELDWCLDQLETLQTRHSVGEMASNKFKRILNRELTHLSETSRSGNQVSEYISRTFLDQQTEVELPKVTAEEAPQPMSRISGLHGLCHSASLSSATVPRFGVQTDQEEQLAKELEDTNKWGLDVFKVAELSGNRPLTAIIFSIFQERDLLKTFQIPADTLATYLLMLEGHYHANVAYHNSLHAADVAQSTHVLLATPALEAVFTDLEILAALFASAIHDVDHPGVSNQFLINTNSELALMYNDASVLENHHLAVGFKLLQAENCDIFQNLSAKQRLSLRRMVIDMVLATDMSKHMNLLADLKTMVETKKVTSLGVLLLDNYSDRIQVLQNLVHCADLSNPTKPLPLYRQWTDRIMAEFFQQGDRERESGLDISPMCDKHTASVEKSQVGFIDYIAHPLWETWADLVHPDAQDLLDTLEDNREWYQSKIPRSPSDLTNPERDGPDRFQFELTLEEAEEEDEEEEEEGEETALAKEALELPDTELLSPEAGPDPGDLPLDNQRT
T6 sequence (Q13946 whole entry): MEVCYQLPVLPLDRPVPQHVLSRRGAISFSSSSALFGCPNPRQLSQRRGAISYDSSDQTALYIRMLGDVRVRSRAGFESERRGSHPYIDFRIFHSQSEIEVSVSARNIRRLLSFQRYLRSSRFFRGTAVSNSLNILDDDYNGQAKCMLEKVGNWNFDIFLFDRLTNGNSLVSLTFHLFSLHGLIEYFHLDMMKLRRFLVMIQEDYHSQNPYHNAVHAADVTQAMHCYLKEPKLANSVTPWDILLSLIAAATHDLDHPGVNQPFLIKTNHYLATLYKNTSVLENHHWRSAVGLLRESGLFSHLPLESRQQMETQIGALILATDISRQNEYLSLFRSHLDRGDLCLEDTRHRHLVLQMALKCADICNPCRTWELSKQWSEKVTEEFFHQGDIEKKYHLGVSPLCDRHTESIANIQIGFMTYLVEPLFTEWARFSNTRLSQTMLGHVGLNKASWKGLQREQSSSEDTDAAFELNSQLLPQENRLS

COc1ccc(NC(=O)c2cnc(SC)nc2N2CCOCC2)cc1OC [compound 1, N-(3,4-dimethoxyphenyl)-2-(methylthio)-4-morpholinopyrimidine-5-carboxamide] was tested, and the IC50 [1] was 31 ± 7.17 nM, the “specificity against PDE4B compared to other PDE enzymes” value [1] was “not exclusive to PDE4B alone” and the “intracellular levels of cAMP” value [2] was “significantly improved”. The “serum IL-4 level” value [3] was “significantly reversed”, the “serum IL-5 level” value [3] was “significantly reversed” and the “serum IL-17 level” value [3] was “reduced level”. The “serum IFN-γ level (reduced by DNCB)” value [3] was “significantly reversed”, the “serum IgE level” value [3] was “significantly reduced” and the IC50 [4] was 45 ± 3.54 nM. The IC50 [5] was 77 ± 8.8 nM, the “LPS-induced TNF-α synthesis” value [6] was “effectively inhibited” and the “mast cell infiltration in the epidermis region (toluidine blue), number of mast cells” value [7] was 56 ± 11 per 350 μm^2. For the same compound, the “CD4+ cells in the skin (immunohistochemistry)” value [7] was “reduced levels of CD4+ cells”, the “epidermal thickening (H&E)” value [7] was “reduced epidermal thickening” and the “infiltration of inflammatory cells into epidermis and dermis (H&E)” value [7] was “reduced levels of inflammatory cells”. The IC50 [8] was 800 ± 45.8 nM, the dorsal skin thickness [9] was 0.78 mm and the spleen weight [9] was “significantly reduced”. For the same compound, the “subiliac lymph node size” value [9] was “drastically reduced”, the “subiliac lymph node weight” value [9] was “drastically reduced” and the “week after which significant reduction in dermatitis score was observed” value [9] was “third”. The “scratching frequency (DNCB-induced itching sensation)” value [9] was “significantly (p < 0.01) inhibited”, the dermatitis score [9] was “significant reduction” and the “AD-like skin features (erythema, hemorrhage, dry skin)” value [9] was “reduced levels of erythema and hemorrhage and dry skin”. The “skin feature of compound alone treated mice” value [9] was “normal skin feature, no sign of allergy was observed”, the IC50 [10] was 756 ± 59 nM and the IC50 [11] was 220 ± 16.3 nM. For the same compound, the IC50 [12] was 389 ± 26.3 nM.

For COc1ccc(-c2nc(C(F)(F)F)ncc2C(=O)Nc2ccncc2)cc1OC [compound 2, 4-(3,4-dimethoxyphenyl)-N-(pyridin-4-yl)-2-(trifluoromethyl)pyrimidine-5-carboxamide], the IC50 [1] was 15 ± 0.4 nM, the “specificity against PDE4B compared to other PDE enzymes” value [1] was “high specificity against PDE4B” and the “intracellular levels of cAMP” value [2] was “significantly improved”. The “serum IL-4 level” value [3] was “significantly reversed”, the “serum IL-5 level” value [3] was “significantly reversed” and the “serum IL-17 level” value [3] was “reduced level”. For the same compound, the “serum IFN-γ level (reduced by DNCB)” value [3] was “significantly reversed”, the “serum IgE level” value [3] was “significantly reduced” and the IC50 [4] was 152 ± 1.33 nM. The IC50 [5] was 57 ± 4.87 nM, the “LPS-induced TNF-α synthesis” value [6] was “effectively inhibited” and the “mast cell infiltration in the epidermis region (toluidine blue), number of mast cells” value [7] was 29.41 ± 6 per 350 μm^2. For the same compound, the “CD4+ cells in the skin (immunohistochemistry)” value [7] was “reduced levels of CD4+ cells”, the “epidermal thickening (H&E)” value [7] was “reduced epidermal thickening” and the “infiltration of inflammatory cells into epidermis and dermis (H&E)” value [7] was “reduced levels of inflammatory cells”. For the same compound, the IC50 [8] was 169 ± 3.78 nM, the dorsal skin thickness [9] was 0.64 mm and the spleen weight [9] was “significantly reduced”. The “subiliac lymph node size” value [9] was “drastically reduced”, the “subiliac lymph node weight” value [9] was “drastically reduced” and the “week after which significant reduction in dermatitis score was observed” value [9] was “second”. For the same compound, the “scratching frequency (DNCB-induced itching sensation)” value [9] was “significantly (p < 0.01) inhibited”, the dermatitis score [9] was “significant reduction” and the “AD-like skin features (erythema, hemorrhage, dry skin)” value [9] was “reduced levels of erythema and hemorrhage and dry skin”. The “skin feature of compound alone treated mice” value [9] was “normal skin feature, no sign of allergy was observed”, the IC50 [10] was 98 ± 8.45 nM and the IC50 [11] was 108 ± 3.78 nM. The “concentration required to inhibit PDE4D relative to PDE4B” value ([11]; PDE4D versus PDE4B) was “nearly sevenfold higher concentration” and the IC50 [12] was 250 ± 14.6 nM.
